Molecular target: T1, human adenosine A2b receptor (Homo sapiens, UniProt P29275)
T1 construct: expressed in transfected cells; host or cells: CHO-K1 (Chinese Hamster Ovary) with CRE-luciferase reporter
T1 sequence (P29275 1-332): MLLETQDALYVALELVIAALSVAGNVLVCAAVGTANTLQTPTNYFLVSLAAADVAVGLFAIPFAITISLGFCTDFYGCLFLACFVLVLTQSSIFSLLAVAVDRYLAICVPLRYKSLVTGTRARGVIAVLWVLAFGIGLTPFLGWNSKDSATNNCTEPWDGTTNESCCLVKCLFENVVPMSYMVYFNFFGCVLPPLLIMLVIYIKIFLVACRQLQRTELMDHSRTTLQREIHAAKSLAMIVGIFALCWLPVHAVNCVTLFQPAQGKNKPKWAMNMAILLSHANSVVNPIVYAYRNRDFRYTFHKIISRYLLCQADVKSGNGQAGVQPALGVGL
Test: Cellular reporter gene (CRE-luciferase) A2b receptor antagonist assay in recombinant CHO-K1 cells stimulated with NECA
Format: cell-based
Settings: recombinant CHO-K1 cell line, co-incubation with EC50 concentration of NECA, 3 hours, in some cases means, rounded to two significant digits
Method: B-1. Cellular In Vitro Tests for Determining A2b Receptor Activity and Adenosine Receptor Selectivity
The identification of selective antagonists of the human adenosine A2b receptor and the quantification of the efficacy and selectivity of the compounds according to the invention was carried out with the aid of recombinant cell lines for the human adenosine receptors A1, A2a, A2b and A3. These cell lines were originally derived from an ovarepithelial cell of the hamster (Chinese Hamster Ovary, CHO-K1, American Type Culture Collection, Manassas, Va. 20108, USA). In addition to the respective recombinantly expressed adenosine receptor for testing the efficacy at the A1, A2a and A2b receptors, the cell lines contain a reporter gene construct where expression of the firefly (Photinus pyralis) luciferase is under the control of a promoter which can be activated via intracellular signal cascades by stimulation of the receptors with the (not subtype-selective) adenosine receptor agonist NECA (5′-N-ethylcarboxamidoadenosine) [S. J. Hill, J. G. Baker, S. Rhees, Curr. Opin. Pharmacol. 1, 526-532 (2001)].
In the case of the A2a and A2b cell lines, this is a minimal promoter having a plurality of cAMP-responsive elements (CRE). Stimulation of the Gs coupled A2b or A2a receptors by NECA ultimately leads, via formation of cAMP, to CRE-dependent induction of luciferase expression, which is detected 3 hours after the start of the incubation with NECA using a detection solution in a suitable luminometer. For testing the antagonists, initially, in a pre-experiment, the concentration of NECA which, at the test day in question, results in half-maximum stimulation of luciferase expression (EC50 concentration) is determined By joint incubation of this EC50 concentration of NECA with the substances to be tested, it is possible to determine their antagonistic activity.

| SMILES | IC50 [µM] |
| --- | --- |
| CCn1c(=O)c2c(C)c(C(=O)N3CCC(O)CC3)sc2n(CCSC(F)(F)F)c1=O [Example 57, 3-Ethyl-6-[(4-hydroxypiperidin-1-yl)carbonyl]-5-methyl-1-{2-[(trifluoromethyl)sulphanyl]ethyl}thieno[2,3-d]pyrimidine-2,4(1H,3H)-dione] | 0.13 |
| CCn1c(=O)c2c(CF)c(C(=O)N3CCC(C)(O)CC3)sc2n(CCC(F)(F)F)c1=O [Example 144, 3-Ethyl-5-(fluoromethyl)-6-[(4-hydroxy-4-methylpiperidin-1-yl)carbonyl]-1-(3,3,3-trifluoropropyl)thieno[2,3-d]pyrimidine-2,4(1H,3H)-dione] | 0.17 |
| CCn1c(=O)c2c(C(C)F)c(C(=O)N3CCC(C)(O)CC3)sc2n(CCC(F)(F)F)c1=O (racemic) [Example 146, 3-Ethyl-5-(1-fluoroethyl)-6-[(4-hydroxy-4-methylpiperidin-1-yl)carbonyl]-1-(3,3,3-trifluoropropyl)thieno[2,3-d]pyrimidine-2,4(1H,3H)-dione] | 0.04 |
| Cc1c(C(=O)N2CCC(O)(CO)CC2)sc2c1c(=O)n(CCc1ccccc1)c(=O)n2CCOC(F)(F)F [Example 110, 6-{[4-Hydroxy-4-(hydroxymethyl)piperidin-1-yl]carbonyl}-5-methyl-3-(2-phenylethyl)-1-[2-(trifluoromethoxy)ethyl]thieno[2,3-d]pyrimidine-2,4(1H,3H)-dione] | 0.014 |
| CCCn1c(=O)c2c(C(F)F)c(C(=O)N3CCC(C)(O)CC3)sc2n(CCC(F)(F)F)c1=O [Example 142, 5-(Difluoromethyl)-6-[(4-hydroxy-4-methylpiperidin-1-yl)carbonyl]-3-propyl-1-(3,3,3-trifluoropropyl)thieno[2,3-d]pyrimidine-2,4(1H,3H)-dione] | 0.053 |
| CCn1c(=O)c2c(C)c(C(=O)N3CCC(O)CC3)sc2n(CCC(F)=C(F)F)c1=O [Example 136, 3-Ethyl-6-[(4-hydroxypiperidin-1-yl)carbonyl]-5-methyl-1-(3,4,4-trifluorobut-3-en-1-yl)thieno[2,3-d]pyrimidine-2,4(1H,3H)-dione] | 0.31 |
| O=C(c1cc2c(=O)n(CCc3ccccc3)c(=O)n(CCC(F)(F)F)c2s1)N1CCC(O)(CO)CC1 [Example 92, 6-{[4-Hydroxy-4-(hydroxymethyl)piperidin-1-yl]carbonyl}-3-(2-phenylethyl)-1-(3,3,3-trifluoropropyl)thieno[2,3-d]pyrimidine-2,4(1H,3H)-dione] | 0.37 |
| CCn1c(=O)c2c(C)c(C(=O)N3CCC(O)C(O)C3)sc2n(CCC(F)(F)F)c1=O (single isomer, unassigned) [Example 121, 6-[(3,4-Dihydroxypiperidin-1-yl)carbonyl]-3-ethyl-5-methyl-1-(3,3,3-trifluoropropyl)thieno [2,3-d]pyrimidine-2,4(1H,3H)-dione] | 0.18 |
| Cc1c(C(=O)N2CCNC(=O)C2)sc2c1c(=O)n(CCc1ccccc1F)c(=O)n2CCC=C(F)F [Example 30, 1-(4,4-Difluorobut-3-en-1-yl)-3-[2-(2-fluorophenyl)ethyl]-5-methyl-6-[(3-oxopiperazin-1-yl)carbonyl]thieno[2,3-d]pyrimidine-2,4(1H,3H)-dione] | 0.053 |
| CCn1c(=O)c2c(C)c(C(=O)N3CCNC(=O)C3C)sc2n(CCC(F)(F)F)c1=O (racemic) [Example 39, 3-Ethyl-5-methyl-6-[(2-methyl-3-oxopiperazin-1-yl)carbonyl]-1-(3,3,3-trifluoropropyl)thieno[2,3-d]pyrimidine-2,4(1H,3H)-dione (racemate)] | 0.22 |
| CCn1c(=O)c2c(C)c(C(=O)N3CCC(O)C(O)C3)sc2n(CCC(F)(F)F)c1=O (racemic) [Example 116, 6-[(3,4-Dihydroxypiperidin-1-yl)carbonyl]-3-ethyl-5-methyl-1-(3,3,3-trifluoropropyl)thieno [2,3-d]pyrimidine-2,4(1H,3H)-dione] | 0.2 |
| CC(C)Cn1c(=O)c2c(C(F)F)c(C(=O)N3CCC(C)(O)CC3)sc2n(CCOC(F)(F)F)c1=O [Example 138, 5-(Difluoromethyl)-6-[(4-hydroxy-4-methylpiperidin-1-yl)carbonyl]-3-isobutyl-1-[2-(trifluoromethoxy)ethyl]thieno[2,3-d]pyrimidine-2,4(1H,3H)-dione] | 0.015 |
| CCCn1c(=O)c2c(C)c(C(=O)N3CCC(C)(O)CC3)sc2n(CCOC(F)(F)F)c1=O [Example 79, 6-[(4-Hydroxy-4-methylpiperidin-1-yl)carbonyl]-5-methyl-3-propyl-1-[2-(trifluoromethoxy)ethyl]thieno[2,3-d]pyrimidine-2,4(1H,3H)-dione] | 0.008 |
| CCn1c(=O)c2c(C(C)F)c(C(=O)N3CCNC(=O)C3)sc2n(CCC(F)(F)F)c1=O (single isomer, unassigned) [Example 148, 3-Ethyl-5-(1-fluoroethyl)-6-[(3-oxopiperazin-1-yl)carbonyl]-1-(3,3,3-trifluoropropyl)thieno[2,3-d]pyrimidine-2,4(1H,3H)-dione] | 0.24 |
| CC(C)Cn1c(=O)c2c(C(F)F)c(C(=O)N3CCC(O)CC3)sc2n(CCOC(F)(F)F)c1=O [Example 137, 5-(Difluoromethyl)-6-[(4-hydroxypiperidin-1-yl)carbonyl]-3-isobutyl-1-[2-(trifluoromethoxy)ethyl]thieno[2,3-d]pyrimidine-2,4(1H,3H)-dione] | 0.012 |
| CCn1c(=O)c2c(C(F)(F)F)c(C(=O)N3CCC(O)(CO)CC3)sc2n(CCC(F)(F)F)c1=O [Example 83, 3-Ethyl-6-{[4-hydroxy-4-(hydroxymethyl)piperidin-1-yl]carbonyl}-5-(trifluoromethyl)-1-(3,3,3-trifluoropropyl)thieno[2,3-d]pyrimidine-2,4(1H,3H)-dione] | 0.056 |
| COc1ccc(CCn2c(=O)c3c(C)c(C(=O)N4CCC(O)CC4)sc3n(CCC(F)(F)F)c2=O)cc1 [Example 14, 6-[(4-Hydroxypiperidin-1-yl)carbonyl]-3-[2-(4-methoxyphenyl)ethyl]-5-methyl-1-(3,3,3-trifluoropropyl)thieno [2,3-d]pyrimidine-2,4(1H,3H)-dione] | 0.19 |
| O=C1CN(C(=O)c2sc3c(c2C(F)F)c(=O)n(CCc2ccccc2)c(=O)n3CCC(F)(F)F)CCN1 [Example 97, 5-(Difluoromethyl)-6-[(3-oxopiperazin-1-yl)carbonyl]-3-(2-phenylethyl)-1-(3,3,3-trifluoropropyl)thieno[2,3-d]pyrimidine-2,4(1H,3H)-dione] | 0.007 |
| CCn1c(=O)c2c(C(F)F)c(C(=O)N3CCC(O)CC3)sc2n(CCOC(F)(F)F)c1=O [Example 123, 5-(Difluoromethyl)-3-ethyl-6-[(4-hydroxypiperidin-1-yl)carbonyl]-1-[2-(trifluoromethoxy)ethyl]thieno[2,3-d]pyrimidine-2,4(1H,3H)-dione] | 0.018 |
| Cc1c(C(=O)N2CCC(O)CC2)sc2c1c(=O)n(CCc1ccccn1)c(=O)n2CCC(F)(F)F [Example 53, 6-[(4-Hydroxypiperidin-1-yl)carbonyl]-5-methyl-3-[2-(pyridin-2-yl)ethyl]-1-(3,3,3-trifluoropropyl)thieno[2,3-d]pyrimidine-2,4(1H,3H)-dione] | 0.17 |
| Cc1c(C(=O)N2CCC(O)CC2)sc2c1c(=O)n(CC(C)C)c(=O)n2CCC(F)(F)F [Example 64, 6-[(4-Hydroxypiperidin-1-yl)carbonyl]-3-isobutyl-5-methyl-1-(3,3,3-trifluoropropyl)thieno[2,3-d]pyrimidine-2,4(1H,3H)-dione] | 0.045 |
| Cc1c(C(=O)N2CCC(O)CC2)sc2c1c(=O)n(CCc1ccc(F)cc1)c(=O)n2CCC(F)(F)F [Example 12, 3-[2-(4-Fluorophenyl)ethyl]-6-[(4-hydroxypiperidin-1-yl)carbonyl]-5-methyl-1-(3,3,3-trifluoropropyl)thieno[2,3-d]pyrimidine-2,4(1H,3H)-dione] | 0.065 |
| CCn1c(=O)c2c(C)c(C(=O)N3CCC(O)C(O)C3)sc2n(CCC(F)(F)F)c1=O (single isomer, unassigned) [Example 120, 6-[(3,4-Dihydroxypiperidin-1-yl)carbonyl]-3-ethyl-5-methyl-1-(3,3,3-trifluoropropyl)thieno [2,3-d]pyrimidine-2,4(1H,3H)-dione] | 0.13 |
| Cc1c(C(=O)N2CCC(O)CC2)sc2c1c(=O)n(CCC=C(F)F)c(=O)n2CCC(F)(F)F [Example 106, 3-(4,4-Difluorobut-3-en-1-yl)-6-[(4-hydroxypiperidin-1-yl)carbonyl]-5-methyl-1-(3,3,3-trifluoropropyl)thieno [2,3-d]pyrimidine-2,4(1H,3H)-dione] | 0.019 |

From US9604996B2 (Bayer Pharma Aktiengesellschaft, priority 2013, dated 2017)
